From paper PMC4133348, “Domain Organization, Catalysis and Regulation of Eukaryotic Cystathionine Beta-Synthases” (PLoS ONE, 2014)

Key:
[1] = target: T1, yCBS (Saccharomyces cerevisiae, UniProt P32582); test: isothermal titration calorimetry; format: binding
T1 construct: gene CYS4
T1 sequence (P32582 1-507): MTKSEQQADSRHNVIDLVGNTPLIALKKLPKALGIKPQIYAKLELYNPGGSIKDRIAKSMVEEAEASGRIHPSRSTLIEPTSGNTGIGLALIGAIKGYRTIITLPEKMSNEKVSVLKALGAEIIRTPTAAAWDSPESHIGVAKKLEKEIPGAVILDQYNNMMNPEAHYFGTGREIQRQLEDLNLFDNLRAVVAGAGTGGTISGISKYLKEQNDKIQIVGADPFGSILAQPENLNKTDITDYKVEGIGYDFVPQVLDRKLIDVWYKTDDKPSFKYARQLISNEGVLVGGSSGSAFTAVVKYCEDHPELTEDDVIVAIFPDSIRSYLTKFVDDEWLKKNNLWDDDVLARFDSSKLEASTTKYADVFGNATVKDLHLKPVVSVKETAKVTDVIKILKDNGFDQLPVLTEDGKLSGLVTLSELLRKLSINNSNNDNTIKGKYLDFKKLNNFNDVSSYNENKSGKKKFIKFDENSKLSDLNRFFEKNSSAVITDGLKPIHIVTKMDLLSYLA

[2] = target: T1, yCBS; test: differential scanning calorimetry; format: binding; details: 100 µM AdoMet, 20 mM HEPES pH 7.4, 50 µM PLP, 3 °C/min
[3] = target: T2, hCBS (Homo sapiens, UniProt P35520); test: […]serine radioisotope assay of canonical reaction (activation); format: biochemical; details: 10 mM L-serine, 10 mM L-homocysteine, 0.2 mM PLP, pH 8.6, 37 °C; allosteric activator
T2 construct: gene CBS; full-length, permanent C-terminal 6xHis, E. coli, homotetramer of 63 kDa polypeptides, heme-containing
T2 sequence (P35520 1-551): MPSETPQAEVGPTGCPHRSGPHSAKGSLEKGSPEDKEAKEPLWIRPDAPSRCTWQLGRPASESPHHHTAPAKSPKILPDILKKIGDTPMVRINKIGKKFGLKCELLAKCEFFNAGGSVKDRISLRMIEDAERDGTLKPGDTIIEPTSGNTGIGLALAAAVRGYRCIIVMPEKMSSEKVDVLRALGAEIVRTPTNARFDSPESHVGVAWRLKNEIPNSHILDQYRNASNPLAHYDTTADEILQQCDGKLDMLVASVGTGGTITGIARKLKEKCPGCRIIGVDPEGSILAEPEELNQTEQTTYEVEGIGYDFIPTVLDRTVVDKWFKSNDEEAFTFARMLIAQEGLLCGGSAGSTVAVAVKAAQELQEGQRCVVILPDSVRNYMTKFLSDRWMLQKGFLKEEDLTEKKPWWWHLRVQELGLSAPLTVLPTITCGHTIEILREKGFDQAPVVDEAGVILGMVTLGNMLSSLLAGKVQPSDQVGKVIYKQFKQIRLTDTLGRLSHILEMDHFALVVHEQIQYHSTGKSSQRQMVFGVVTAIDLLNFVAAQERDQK

[4] = target: T3, dCBS (Drosophila melanogaster, UniProt Q9VRD9); test: […]serine radioisotope assay of canonical reaction; format: biochemical; details: 10 mM L-serine, 10 mM L-homocysteine, 0.2 mM PLP, pH 8.6, 37 °C
T3 construct: gene Cbs; full-length, permanent C-terminal 6xHis (pET28-C-dCBS), E. coli Rosetta2 (DE3), homodimer, heme-containing
T3 sequence (Q9VRD9 1-522): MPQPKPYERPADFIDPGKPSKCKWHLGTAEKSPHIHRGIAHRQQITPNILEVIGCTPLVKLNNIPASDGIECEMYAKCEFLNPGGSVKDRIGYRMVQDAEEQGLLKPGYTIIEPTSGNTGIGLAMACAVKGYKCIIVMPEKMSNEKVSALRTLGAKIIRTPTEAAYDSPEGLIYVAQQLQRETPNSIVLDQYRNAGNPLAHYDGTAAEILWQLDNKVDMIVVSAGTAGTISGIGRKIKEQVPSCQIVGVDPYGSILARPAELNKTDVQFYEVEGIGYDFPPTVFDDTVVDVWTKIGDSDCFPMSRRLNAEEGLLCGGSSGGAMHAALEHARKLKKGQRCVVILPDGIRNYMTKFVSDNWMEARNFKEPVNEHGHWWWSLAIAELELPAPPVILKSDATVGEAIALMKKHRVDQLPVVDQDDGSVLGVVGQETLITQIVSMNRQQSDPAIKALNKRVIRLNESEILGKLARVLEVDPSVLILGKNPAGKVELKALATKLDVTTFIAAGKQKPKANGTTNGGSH

[5] = target: T2, hCBS; test: as above; format: biochemical; details: 10 mM L-serine, 10 mM L-homocysteine, 0.2 mM PLP, pH 8.6, 37 °C; no AdoMet
[6] = target: the molecule itself; test: native gel or EMSA; purified enzymes (100 ng CBS per lane) separated in a 4–15% polyacrylamide gradient gel under native conditions, transferred to PVDF and probed with monoclonal anti-6xHis antibody; oligomeric state of each enzyme
[7] = target: T4, human cystathionine beta-synthase, full-length (human), P35520; test: as above; details: remark: other sources report otherwise
T4 chain: T2 sequence (P35520 1-551)

C[S+](CC[C@H](N)C(=O)O)C[C@H]1O[C@@H](n2cnc3c(N)ncnc32)[C@H](O)[C@@H]1O (stereo partly shown) [AdoMet]
Kd [1]: 5 ± 0.5 µM
dTm [2]: ~ 0.2 °C
fold increase in specific activity at 300 μM [3]: ~ 3.2 fold

N[C@@H](CO)C(=O)O [Ser]
[14C]serine radioisotope assay of canonical reaction [4]: specific activity compared to hCBS in the canonical condensation of Ser and Hcy
[14C]serine radioisotope assay of canonical reaction [5]: specific activity compared to hCBS in the canonical condensation of Ser and Hcy

B1: Drosophila melanogaster cystathionine beta-synthase, full-length (enzyme, UniProt Q9VRD9 1-522, looked up)
chain: T3 sequence (Q9VRD9 1-522)
notes: Cloned by NcoI and HindIII into pET-28a; also called dCBS; source: E. coli Rosetta2 (DE3), purified (TALON, DEAE Sepharose); not shown: 6xHis, C-terminal, kept
stoichiometry N [6]: 2

B2: 45 kDa hCBS (hCBS V414*), truncated human cystathionine beta-synthase lacking the regulatory domain (domain or fragment, UniProt P35520 1-413, looked up)
chain: MPSETPQAEVGPTGCPHRSGPHSAKGSLEKGSPEDKEAKEPLWIRPDAPSRCTWQLGRPASESPHHHTAPAKSPKILPDILKKIGDTPMVRINKIGKKFGLKCELLAKCEFFNAGGSVKDRISLRMIEDAERDGTLKPGDTIIEPTSGNTGIGLALAAAVRGYRCIIVMPEKMSSEKVDVLRALGAEIVRTPTNARFDSPESHVGVAWRLKNEIPNSHILDQYRNASNPLAHYDTTADEILQQCDGKLDMLVASVGTGGTITGIARKLKEKCPGCRIIGVDPEGSILAEPEELNQTEQTTYEVEGIGYDFIPTVLDRTVVDKWFKSNDEEAFTFARMLIAQEGLLCGGSAGSTVAVAVKAAQELQEGQRCVVILPDSVRNYMTKFLSDRWMLQKGFLKEEDLTEKKPWWWHLR
notes: cystathionine beta-synthase, Homo sapiens, C-terminally truncated by a stop at V414 (regulatory domain removed); not shown: 6xHis, C-terminal, kept
stoichiometry N [6]: 2

B3: Saccharomyces cerevisiae cystathionine beta-synthase, full-length (enzyme, UniProt P32582 1-507, looked up)
chain: T1 sequence (P32582 1-507)
notes: Cloned by NcoI and XhoI into pET-28a; also called yCBS; yCBS WT; source: E. coli Rosetta2 (DE3), purified (TALON, DEAE Sepharose); not shown: 6xHis, C-terminal, kept
stoichiometry N [6]: 4

B4: human cystathionine beta-synthase, full-length, P35520 1-551 (enzyme)
chain: T2 sequence (P35520 1-551)
stoichiometry N [7]: 4

B5: yCBS L345*, truncated Saccharomyces cerevisiae cystathionine beta-synthase lacking the regulatory domain (domain or fragment, UniProt P32582 1-344, looked up)
chain: MTKSEQQADSRHNVIDLVGNTPLIALKKLPKALGIKPQIYAKLELYNPGGSIKDRIAKSMVEEAEASGRIHPSRSTLIEPTSGNTGIGLALIGAIKGYRTIITLPEKMSNEKVSVLKALGAEIIRTPTAAAWDSPESHIGVAKKLEKEIPGAVILDQYNNMMNPEAHYFGTGREIQRQLEDLNLFDNLRAVVAGAGTGGTISGISKYLKEQNDKIQIVGADPFGSILAQPENLNKTDITDYKVEGIGYDFVPQVLDRKLIDVWYKTDDKPSFKYARQLISNEGVLVGGSSGSAFTAVVKYCEDHPELTEDDVIVAIFPDSIRSYLTKFVDDEWLKKNNLWDDDV
notes: cystathionine beta-synthase, Saccharomyces cerevisiae, C-terminally truncated at L345 (pET28-C-yCBS L345*); Cloned by NcoI and XhoI into pET-28a; source: E. coli Rosetta2 (DE3), purified (TALON, DEAE Sepharose); not shown: 6xHis, C-terminal, kept
stoichiometry N [6]: 2
